Source: patent publication US20020169111A1, “Reversal of multidrug resistance in human colon carcinoma cells” (American Cyanamid Comany, priority 1998, published 2002)
Where two headings read alike, the source gives them in different places.

Key:
S1-M1-3.2 cells = conditions: for Per Cent Survival with 3.2 μM mitoxantrone / Per Cent Survival Alone / Difference Score: S1-M1-3.2 cells; for Per Cent Survival Alone: 3 days; for Difference Score: survival alone minus survival with 3.2 μM mitoxantrone
Procedure: One of the first reported molecules with reversing activity was verapamil, a calcium channel blocker. […] Cells were plated into 96-well dishes (100 μl/well) in growth medium supplemented with 5% FBS. […] Reversal agents were tested from 0.1-80 μM (triplicate points per dose). In parallel wells, cells were grown in the presence of the reversal agent alone.
The Difference Score is the difference in the percentage of cells surviving when the drug was given alone minus the percentage of cells surviving when the drug was given along with the antitumor agent.
Cell survival was estimated using the Sulforhodamine (SRB) assay.

P-gp expressing cells = conditions: P-gp reversal; cited from earlier work
S1-B1-20 cells = assay: Reversal of resistance in P-gp expressing cells, alone or with 21 μM bisantrene; format: cell-based, human; design: Difference Score: unit not given here; conditions: for Per Cent Survival with 21 μM bisantrene / Per Cent Survival Alone / Difference Score: S1-B1-20 cells; for Difference Score: survival alone minus survival with 21 μM bisantrene
Procedure: To determine the specificity of FTC for non P-gp multidrug resistance, FTC was tested on S1-B1-20 cells which were selected for resistance to bisantrene and which express high levels of P-gp (Table 9)(Zhang, et al, Oncol. Res. 6291-301 (1994)). […] The 21 μM concentration of bisantrene is not inhibitory to the growth of the cells. Values shown are mean ± standard deviation from triplicate test wells.

For `COc1ccc(C(C#N)(CCCCCN2CCc3cc(OC)c(OC)cc3C2)Sc2ccc(C)cc2)cc1OC` (stereo not drawn) [α-(3,4-dimethoxyphenyl)-3,4-dihydro-6,7-dimethoxy-α-[(4-methylphenyl)thio]-2(1H)-isoquinolineheptanenitrile, reference compound], the “Per Cent Survival with 3.2 μM mitoxantrone” value (S1-M1-3.2 cells; drug 0.1 μM) was 98 ± 2 Per Cent, the “Per Cent Survival Alone” value (S1-M1-3.2 cells; drug 0.1 μM alone) was 98 ± 2 Per Cent and the “Difference Score” value (S1-M1-3.2 cells; drug 0.1 μM) was 0. For the same compound, the “Per Cent Survival with 3.2 μM mitoxantrone” value (S1-M1-3.2 cells; drug 0.5 μM) was 98 ± 0 Per Cent, the “Per Cent Survival Alone” value (S1-M1-3.2 cells; drug 0.5 μM alone) was 100 ± 0 Per Cent and the “Difference Score” value (S1-M1-3.2 cells; drug 0.5 μM) was 2. The “Per Cent Survival with 3.2 μM mitoxantrone” value (S1-M1-3.2 cells; drug 1 μM) was 99 ± 2 Per Cent, the “Per Cent Survival Alone” value (S1-M1-3.2 cells; drug 1 μM alone) was 101 ± 1 Per Cent and the “Difference Score” value (S1-M1-3.2 cells; drug 1 μM) was 2. The “Per Cent Survival with 3.2 μM mitoxantrone” value (S1-M1-3.2 cells; drug 5 μM) was 63 ± 8 Per Cent, the “Per Cent Survival Alone” value (S1-M1-3.2 cells; drug 5 μM alone) was 78 ± 8 Per Cent and the “Difference Score” value (S1-M1-3.2 cells; drug 5 μM) was 15. For the same compound, the “Per Cent Survival with 3.2 μM mitoxantrone” value (S1-M1-3.2 cells; drug 10 μM) was 36 ± 11 Per Cent, the “Per Cent Survival Alone” value (S1-M1-3.2 cells; drug 10 μM alone) was 39 ± 18 Per Cent and the “Difference Score” value (S1-M1-3.2 cells; drug 10 μM) was 3. For the same compound, the “Per Cent Survival with 3.2 μM mitoxantrone” value (S1-M1-3.2 cells; drug 20 μM) was 21 ± 10 Per Cent, the “Per Cent Survival Alone” value (S1-M1-3.2 cells; drug 20 μM alone) was 21 ± 13 Per Cent and the “Difference Score” value (S1-M1-3.2 cells; drug 20 μM) was 0. The “Per Cent Survival with 3.2 μM mitoxantrone” value (S1-M1-3.2 cells; drug 40 μM) was 16 ± 4 Per Cent, the “Per Cent Survival Alone” value (S1-M1-3.2 cells; drug 40 μM alone) was 16 ± 5 Per Cent and the “Difference Score” value (S1-M1-3.2 cells; drug 40 μM) was 0. For the same compound, the “Per Cent Survival with 3.2 μM mitoxantrone” value (S1-M1-3.2 cells; drug 80 μM) was 13 ± 2 Per Cent, the “Per Cent Survival Alone” value (S1-M1-3.2 cells; drug 80 μM alone) was 13 ± 1 Per Cent and the “Difference Score” value (S1-M1-3.2 cells; drug 80 μM) was 0. The “reversal activity in S1-M1-3.2 cells (in words)” value (S1-M1-3.2 cells; with mitoxantrone) was “not reversed”, the “potency relative to verapamil” value (P-gp expressing cells) was “at least 10 fold” and the “Per Cent Survival with 21 μM bisantrene” value (S1-B1-20 cells; drug 0.1 μM) was 92 ± 1 Per Cent. The “Per Cent Survival Alone” value (S1-B1-20 cells; drug 0.1 μM alone) was 99 ± 4 Per Cent, the “Difference Score” value (S1-B1-20 cells; drug 0.1 μM) was 7 and the “Per Cent Survival with 21 μM bisantrene” value (S1-B1-20 cells; drug 0.5 μM) was 10 ± 0 Per Cent. For the same compound, the “Per Cent Survival Alone” value (S1-B1-20 cells; drug 0.5 μM alone) was 97 ± 1 Per Cent, the “Difference Score” value (S1-B1-20 cells; drug 0.5 μM) was 87 and the “Per Cent Survival with 21 μM bisantrene” value (S1-B1-20 cells; drug 1 μM) was 4 ± 0 Per Cent. The “Per Cent Survival Alone” value (S1-B1-20 cells; drug 1 μM alone) was 94 ± 2 Per Cent, the “Difference Score” value (S1-B1-20 cells; drug 1 μM) was 90 and the “Per Cent Survival with 21 μM bisantrene” value (S1-B1-20 cells; drug 5 μM) was 4 ± 0 Per Cent. The “Per Cent Survival Alone” value (S1-B1-20 cells; drug 5 μM alone) was 90 ± 1 Per Cent, the “Difference Score” value (S1-B1-20 cells; drug 5 μM) was 86 and the “Per Cent Survival with 21 μM bisantrene” value (S1-B1-20 cells; drug 10 μM) was 4 ± 0 Per Cent. For the same compound, the “Per Cent Survival Alone” value (S1-B1-20 cells; drug 10 μM alone) was 50 ± 1 Per Cent, the “Difference Score” value (S1-B1-20 cells; drug 10 μM) was 46 and the “Per Cent Survival with 21 μM bisantrene” value (S1-B1-20 cells; drug 20 μM) was 4 ± 0 Per Cent. The “Per Cent Survival Alone” value (S1-B1-20 cells; drug 20 μM alone) was 14 ± 1 Per Cent, the “Difference Score” value (S1-B1-20 cells; drug 20 μM) was 10 and the “Per Cent Survival with 21 μM bisantrene” value (S1-B1-20 cells; drug 40 μM) was 4 ± 0 Per Cent. The “Per Cent Survival Alone” value (S1-B1-20 cells; drug 40 μM alone) was 4 ± 0 Per Cent, the “Difference Score” value (S1-B1-20 cells; drug 40 μM) was 0 and the “Per Cent Survival with 21 μM bisantrene” value (S1-B1-20 cells; drug 80 μM) was 4 ± 0 Per Cent. For the same compound, the “Per Cent Survival Alone” value (S1-B1-20 cells; drug 80 μM alone) was 4 ± 0 Per Cent, the “Difference Score” value (S1-B1-20 cells; drug 80 μM) was 0 and the “reversal of resistance in P-gp positive S1-B1-20 cells (in words)” value (S1-B1-20 cells; bisantrene-selected) was “reversible”.
